# Experimental data: ChEMBL document CHEMBL5257018, “Novel Strategies for the Treatment of Pseudomonas aeruginosa Infections” (J Med Chem, 2016)
# Numbered stars: 1 amine (or outer) side, 2 acyl side, 3 side chain; on linkers, the order of the positions; unused ones are H or OH. Square brackets hold non-standard residues; d marks the D form. Peptide text beside a SMILES is read from it. X2 = COc1cccc2[nH]c(C)c(C[C@H](N[*:1])C(=O)[*:2])c12; dAla(ψthiazole) = C[C@@H](N[*:1])c1nc(C(=O)[*:2])cs1; Trp(4-OMe) = COc1cccc2[nH]cc(C[C@H](N)C(=O)O)c12; GlyΨ(Thz) = O=C(c1csc(CN[*:1])n1)[*:2]; dAbu = CC[C@@H](N)C(=O)O; Dha = C=C(N)C(=O)O; Sar = CNCC(=O)O
# Tested on: Pseudomonas aeruginosa
# Assay: Antimicrobial activity against Pseudomonas aeruginosa assessed as reduction in bacterial growth
# Format: functional, organism-based
MIC90 [µg/mL],MIC,Structure (SMILES),IC50 [µg/mL]
16,,CN(C)c1cc(NC(=O)CNC(C)(C)C)c(O)c2c1C[C@H]1C[C@H]3[C@H](N(C)C)C(O)=C(C(N)=O)C(=O)[C@@]3(O)C(O)=C1C2=O [TIGECYCLINE],
,2 µM,C[C@@H](N)C(=O)N[C@H](CCCCN)C(=O)N[C@H](CCCNC(=N)N)C(=O)N[C@H](Cc1c[nH]cn1)C(=O)N[C@H](Cc1c[nH]cn1)C(=O)NCC(=O)N[C@H](Cc1ccc(O)cc1)C(=O)N[C@H](CCCCN)C(=O)N[C@H](CCCNC(=N)N)C(=O)N[C@H](CCCCN)C(=O)N[C@H](Cc1ccccc1)C(=O)N[C@H](Cc1c[nH]cn1)C(N)=O (H-[dA][dK][dR][dH][dH]G[dY][dK][dR][dK][dF][dH]-NH2),
,,C=C1NC(=O)[C@@H](C)NC(=O)CNC(=O)[C@H](Cc2c(C)[nH]c3cccc(OC)c23)NC(=O)[C@H](Cc2c[nH]c3ccccc23)NC(=O)c2csc(n2)[C@@H](C)NC(=O)CN(C)C1=O (cyclo(W[X2]G[dA][Dha][Sar][dAla(ψthiazole)])),0.1
,,C=C1NC(=O)[C@@H](C)NC(=O)CNC(=O)[C@H](Cc2c[nH]c3ccccc23)NC(=O)[C@H](Cc2c[nH]c3ccccc23)NC(=O)c2csc(n2)[C@@H](C)NC(=O)CN(C)C1=O,1.4
,,C=C1NC(=O)[C@@H](C)NC(=O)CNC(=O)[C@H](Cc2c[nH]c3cccc(OC)c23)NC(=O)[C@H](Cc2c[nH]c3ccccc23)NC(=O)c2csc(n2)CNC(=O)CN(C)C1=O (cyclo([Dha][Sar][GlyΨ(Thz)]W[Trp(4-OMe)]G[dA])),0.8
,0.4 µM,CC(C)[C@H](NC(=O)[C@H](Cc1c[nH]c2ccccc12)NC(=O)[C@H](CCCNC(=N)N)NC(=O)[C@H](CCCNC(=N)N)NC(=O)[C@@H](NC(=O)[C@@H](NC(=O)[C@H](CCCNC(=N)N)NC(=O)[C@@H](NC(=O)[C@@H](NC(=O)[C@H](CCCNC(=N)N)NC(=O)[C@H](CCCNC(=N)N)NC(=O)[C@@H](NC(=O)[C@H](Cc1c[nH]c2ccccc12)NC(=O)[C@H](CCCNC(=N)N)NC(=O)[C@H](CCCNC(=N)N)NC(=O)[C@@H](NC(=O)[C@H](CCCNC(=N)N)NC(=O)[C@H](CCCNC(=N)N)NC(=O)[C@@H](NC(=O)[C@H](Cc1c[nH]c2ccccc12)NC(=O)[C@H](CCCNC(=N)N)NC(=O)[C@@H](N)CCCNC(=N)N)C(C)C)C(C)C)C(C)C)C(C)C)C(C)C)C(C)C)C(C)C)C(=O)N[C@@H](CCCNC(=N)N)C(=O)N[C@@H](CCCNC(=N)N)C(=O)O (H-RRWVRRVRRWVRRVVRVVRRWVRR-OH),
,,C=C1NC(=O)[C@@H](CC)NC(=O)CNC(=O)[C@H](Cc2c[nH]c3cccc(OC)c23)NC(=O)[C@H](Cc2c[nH]c3ccccc23)NC(=O)c2csc(n2)[C@@H](C)NC(=O)CN(C)C1=O (cyclo([Dha][Sar][dAla(ψthiazole)]W[Trp(4-OMe)]G[dAbu])),0.08
,1 µg/mL,COc1c(NC(=O)c2ccc(NC(=O)c3ccc(NC(=O)[C@H](CC#N)NC(=O)c4ccc(NC(=O)/C(C)=C/c5ccc(O)cc5)cc4)cc3)c(OC)c2O)ccc(C(=O)O)c1O,
,,C=C1NC(=O)[C@@H](C)NC(=O)CNC(=O)[C@H](Cc2c[nH]c3cccc(OC)c23)NC(=O)[C@H](Cc2c[nH]c3ccccc23)NC(=O)c2csc(n2)[C@@H](C)NC(=O)CN(C)C1=O (cyclo(W[Trp(4-OMe)]G[dA][Dha][Sar][dAla(ψthiazole)])),0.12
,32 µg/mL,Cc1ccc2c(C)c3c(c(O)c2c1O)C(=O)[C@]1(O)C(=O)C(C(N)=O)=C(O)[C@H](N)[C@@H]1C3,

Structure (SMILES),MIC90 [µg/mL],MIC,IC50 [µg/mL]
CC[C@H](C)[C@H](NC(=O)[C@H](CCCNC(=N)N)NC(=O)[C@H](CCCNC(=N)N)NC(=O)[C@H](Cc1ccccc1)NC(=O)[C@H](CC(C)C)NC(=O)[C@H](CCCNC(=N)N)NC(=O)[C@@H](N)CCCNC(=N)N)C(=O)N[C@@H](CC(C)C)C(=O)N[C@@H](CCCNC(=N)N)C(=O)N[C@@H](Cc1ccc(O)cc1)C(=O)N[C@@H](CC(C)C)C(=O)O (H-RRLFRRILRYL-OH),,2.5 µM,
